Data on one substance can be found in patent US20040171795A1, “Novel peptides” (priority 2000, published 2004).

This test concerns cell (Vero, T24 or A549 of Example 9; not given). Description: Nucleic acid-introducing ability, luciferase-expressing plasmid (procedure of Example 9). Format: cell-based. An outline of the steps:
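Cells pre-cultured 24 h, then exposed 5 h in opti-MEM to luciferase plasmid at 1 μg/mL with peptide at 1.25, 2.5 or 5 μM, then grown 24 h more at 37 °C. Lysate luciferase counts normalised to Bradford protein (cps/mg protein); highest of the three peptide levels taken as gene-introducing ability.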

As to “SEQ ID NO: 1: peptide having the amino acid sequence of SEQ ID NO:1, made by solid phase synthesis (TRYLRIHPRSWVHQIALRLRYLRIHPRSWVHQIALRS; synthetic peptide using an automatic peptide synthesizer)”, the Nucleic acid-introducing ability (class of fluorescent count per 1 mg of protein per 1 second, highest of peptide 1.25, 2.5, 5 μM, plasmid 1 μg/mL) is 3+ (1,000,000 to less than 10,000,000). In addition, under “procedure of Example 9, luciferase-expressing plasmid”, the “ability of introducing the nucleic acid into a cell” value is reported as “found to have the ability of introducing the nucleic acid into a cell”.
